Reference: ChEMBL document CHEMBL4138130, “Effect of mofezolac-galactose distance in conjugates targeting cyclooxygenase (COX)-1 and CNS GLUT-1 carrier” (Eur J Med Chem, 2017)
The source made the active and inactive calls. The rule behind the calls is not given here.

Experiments:
Caco-2 [1] = assay: Cell cycle arrest in human Caco2 cells assessed as accumulation at S-phase at 100 uM after 24 hrs by propidium iodide staining based flow cytometry; assay type: functional
[2] = target: T1, Prostaglandin G/H synthase 1 (Mus musculus) (UniProt P22437); assay: Inhibition of COX1 in mouse BV2 cells assessed as reduction in LPS-stimulated PGE2 release by measuring PGE2 level at 0.5 uM preincubated for 1 hr followed by LPS addition measured after 48 hrs by immunoassay (reference value: 0.7555 +/- 0.032 ng/ml); assay type: cell-based
T1 sequence (whole entry): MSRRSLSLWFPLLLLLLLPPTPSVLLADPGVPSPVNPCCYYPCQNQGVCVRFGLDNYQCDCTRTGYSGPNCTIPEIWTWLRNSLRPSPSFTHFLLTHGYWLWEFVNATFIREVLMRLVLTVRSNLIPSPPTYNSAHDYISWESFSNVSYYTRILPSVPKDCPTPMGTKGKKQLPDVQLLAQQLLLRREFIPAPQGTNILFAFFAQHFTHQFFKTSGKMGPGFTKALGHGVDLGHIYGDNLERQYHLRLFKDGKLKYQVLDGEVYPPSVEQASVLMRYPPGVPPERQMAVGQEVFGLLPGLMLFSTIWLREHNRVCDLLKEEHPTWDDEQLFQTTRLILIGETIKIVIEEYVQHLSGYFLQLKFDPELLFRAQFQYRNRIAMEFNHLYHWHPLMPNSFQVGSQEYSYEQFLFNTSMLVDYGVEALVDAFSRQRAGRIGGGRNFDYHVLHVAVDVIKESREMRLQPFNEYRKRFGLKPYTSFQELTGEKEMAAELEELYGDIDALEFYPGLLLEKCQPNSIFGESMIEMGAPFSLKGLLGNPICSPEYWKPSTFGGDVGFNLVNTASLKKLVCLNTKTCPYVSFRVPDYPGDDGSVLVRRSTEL

[3] = target: T2, Solute carrier family 2, facilitated glucose transporter member 1 (Homo sapiens, UniProt P11166); assay: Permeability across basolateral to apical side in human Caco2 cells assessed as GLUT1-mediated drug transport by transportability method; assay type: ADME, cell-based; conditions: Caco-2
T2 sequence (P11166 whole entry): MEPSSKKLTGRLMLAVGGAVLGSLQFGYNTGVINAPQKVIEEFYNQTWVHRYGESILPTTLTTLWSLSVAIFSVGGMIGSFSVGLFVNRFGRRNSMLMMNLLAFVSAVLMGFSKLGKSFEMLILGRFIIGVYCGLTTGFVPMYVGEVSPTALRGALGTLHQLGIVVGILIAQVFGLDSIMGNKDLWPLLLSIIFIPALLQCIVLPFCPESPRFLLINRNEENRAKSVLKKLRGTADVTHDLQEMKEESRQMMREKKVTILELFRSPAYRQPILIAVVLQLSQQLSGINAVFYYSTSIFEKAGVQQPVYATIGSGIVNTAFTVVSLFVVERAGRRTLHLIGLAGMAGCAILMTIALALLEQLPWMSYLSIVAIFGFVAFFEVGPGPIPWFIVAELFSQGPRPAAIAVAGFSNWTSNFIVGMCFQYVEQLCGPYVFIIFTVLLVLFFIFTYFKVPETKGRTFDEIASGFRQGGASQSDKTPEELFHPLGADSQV

[4] = Apparent permeability across apical to basolateral side in human Caco2 cells at 100 uM after 120 mins by UV-Visible spectroscopic method; assay type: ADME, cell-based; conditions: Caco-2
[5] = target: T3, GLUT1 (Solute carrier family 2, facilitated glucose transporter member 1) (Homo sapiens, UniProt P11166); assay: Apparent permeability across basolateral to apical side in human Caco2 cells assessed as GLUT1-mediated drug transport at 100 uM after 120 mins by UV-Visible spectroscopic method; assay type: ADME, cell-based; conditions: Caco-2
T3 sequence (P11166 whole entry): T2 sequence (P11166 whole entry)

[6] = target: T4, Prostaglandin G/H synthase 2 (Homo sapiens) (UniProt P35354); assay: Inhibition of human COX2 assessed as reduction in appearance of oxidized TMPD at 50 uM using arachidonic acid as substrate by colorimetric assay relative to control
T4 sequence (whole entry): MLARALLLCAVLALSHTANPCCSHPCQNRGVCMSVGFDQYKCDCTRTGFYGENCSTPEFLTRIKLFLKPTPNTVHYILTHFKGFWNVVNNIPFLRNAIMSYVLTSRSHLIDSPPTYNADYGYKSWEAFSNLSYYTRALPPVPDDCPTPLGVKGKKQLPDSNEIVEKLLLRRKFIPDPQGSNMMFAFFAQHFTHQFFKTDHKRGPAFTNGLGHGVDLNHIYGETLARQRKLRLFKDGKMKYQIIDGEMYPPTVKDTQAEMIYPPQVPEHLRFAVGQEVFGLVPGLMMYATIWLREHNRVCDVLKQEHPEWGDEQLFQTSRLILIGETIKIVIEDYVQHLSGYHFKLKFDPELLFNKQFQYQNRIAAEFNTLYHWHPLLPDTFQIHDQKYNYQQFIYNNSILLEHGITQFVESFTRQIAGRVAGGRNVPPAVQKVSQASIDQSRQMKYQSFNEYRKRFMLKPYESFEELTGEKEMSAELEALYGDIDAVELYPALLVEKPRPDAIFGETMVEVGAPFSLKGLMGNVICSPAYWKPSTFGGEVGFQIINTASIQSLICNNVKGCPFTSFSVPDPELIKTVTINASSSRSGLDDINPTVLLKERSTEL

[7] = target: T5, Prostaglandin G/H synthase 1 (Homo sapiens, UniProt P23219); assay: Inhibition of human COX1 assessed as reduction in appearance of oxidized TMPD at 50 uM using arachidonic acid as substrate by colorimetric assay relative to control
T5 sequence (P23219 whole entry): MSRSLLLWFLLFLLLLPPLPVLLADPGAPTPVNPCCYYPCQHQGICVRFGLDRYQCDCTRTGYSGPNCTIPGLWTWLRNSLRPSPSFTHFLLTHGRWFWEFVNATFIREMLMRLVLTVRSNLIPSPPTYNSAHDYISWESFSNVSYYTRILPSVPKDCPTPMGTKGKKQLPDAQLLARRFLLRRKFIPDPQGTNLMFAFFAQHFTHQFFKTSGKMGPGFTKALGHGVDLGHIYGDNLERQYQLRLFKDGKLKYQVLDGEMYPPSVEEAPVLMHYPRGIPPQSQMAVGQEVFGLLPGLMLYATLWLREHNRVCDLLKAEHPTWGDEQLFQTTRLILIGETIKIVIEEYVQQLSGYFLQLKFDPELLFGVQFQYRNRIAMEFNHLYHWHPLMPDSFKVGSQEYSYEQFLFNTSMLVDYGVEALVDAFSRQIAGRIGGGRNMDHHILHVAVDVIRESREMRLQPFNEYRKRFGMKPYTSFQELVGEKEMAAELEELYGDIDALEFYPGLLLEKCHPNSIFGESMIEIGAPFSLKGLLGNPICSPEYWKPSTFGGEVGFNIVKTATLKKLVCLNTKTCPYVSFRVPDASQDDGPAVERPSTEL

Caco-2 [8] = assay: Cell cycle arrest in human Caco2 cells assessed as accumulation at G2/M-phase at 100 uM after 24 hrs by propidium iodide staining based flow cytometry; assay type: functional
Caco-2 [9] = assay: Cell cycle arrest in human Caco2 cells assessed as accumulation at G0/G1-phase at 100 uM after 24 hrs by propidium iodide staining based flow cytometry; assay type: functional
[10] = target: T5, Prostaglandin G/H synthase 1; assay: Inhibition of human COX1 assessed as reduction in appearance of oxidized TMPD using arachidonic acid as substrate by colorimetric assay
[11] = target: T2, Solute carrier family 2, facilitated glucose transporter member 1; assay: Inhibition of GLUT1-mediated 2NBDG uptake in human Caco2 cells at 0.01 to 0.1 mM after 10 mins by Hoechst 33342 staining based fluorescence assay; assay type: cell-based; conditions: caco-2, 10 min, 100 µM
[12] = target: T6, Prostaglandin G/H synthase 2 (Homo sapiens, UniProt P35354); assay: Inhibition of human COX2 assessed as reduction in appearance of oxidized TMPD using arachidonic acid as substrate by colorimetric assay
T6 sequence (P35354 whole entry): T4 sequence (whole entry)

Homo sapiens = species: Homo sapiens; assay: Selectivity index, ratio of IC50 for inhibition of human COX2 to IC50 for inhibition of human COX1
[13] = target: T2, Solute carrier family 2, facilitated glucose transporter member 1; assay: Inhibition of GLUT1-mediated 2NBDG uptake in human Caco2 cells at 1 to 10 mM after 10 mins by Hoechst 33342 staining based fluorescence assay; assay type: cell-based; conditions: caco-2, 10 min, 10000 µM
[14] = target: T1, Prostaglandin G/H synthase 1 (Mus musculus); assay: Inhibition of COX1 in mouse BV2 cells assessed as reduction in LPS-stimulated PGE2 release by measuring PGE2 level at 10 uM preincubated for 1 hr followed by LPS addition measured after 48 hrs by immunoassay (reference value: 0.7555 +/- 0.032 ng/ml); assay type: cell-based
[15] = Chemical stability in pH 8.8 simulated gut district fluid at 2.5 mg/ml after 60 mins by HPLC analysis; assay type: ADME, physicochemical; conditions: buffer, pH 8.8, 1 h
[16] = target: T1, Prostaglandin G/H synthase 1 (Mus musculus); assay: Inhibition of COX1 in mouse BV2 cells assessed as reduction in LPS-stimulated PGE2 release by measuring PGE2 level at 1 uM preincubated for 1 hr followed by LPS addition measured after 48 hrs by immunoassay (reference value: 0.7555 +/- 0.032 ng/ml); assay type: cell-based
[17] = Retention time of the compound by HPLC analysis; assay type: physicochemical
[18] = Metabolic stability in rat liver S9 fraction after 30 mins in presence of NADP+ by HPLC analysis; assay type: ADME, subcellular; conditions: s9, 0.5 h
[19] = Chemical stability in pH 7.3 simulated blood fluid at 2.5 mg/ml after 60 mins by HPLC analysis; assay type: ADME, physicochemical; conditions: pH 7.3, 1 h
[20] = Chemical stability in pH 1 simulated gastric fluid at 2.5 mg/ml after 60 mins by HPLC analysis; assay type: ADME, physicochemical; conditions: simulated gi fluid, pH 1, 1 h

Row | Compound | Activity [2] | permeability [3] | Papp A→B at 2 h, 100 µM [4] | Papp B→A at 2 h, 100 µM [5] | inhibition [6] | inhibition [7] | IC50 [10] | inhibition (INH) [11] | IC50 [12] | Ratio IC50 (Homo sapiens) | Activity (Caco-2 [1]) | Activity (Caco-2 [8]) | Activity (Caco-2 [9]) | other results
1 | COc1ccc(-c2noc(CC(=O)O)c2-c2ccc(OC)cc2)cc1 [MOFEZOLAC] | 0.0328 ng/mL | Permeable | 41.4 ×10⁻⁶ cm/s | 46.1 ×10⁻⁶ cm/s | 38% | 100% |  |  |  |  | inactive | inactive | inactive | 
2 | COc1ccc(-c2noc(CC(=O)NCCCCCCCCCCC(=O)OC[C@H]3OC(O)[C@H](O)[C@@H](O)[C@H]3O)c2-c2ccc(OC)cc2)cc1 (some centres not stated) |  | Permeable | 16.9 ×10⁻⁶ cm/s | 58.7 ×10⁻⁶ cm/s | 64% | 90% | 400 nM | Active | 270 nM | 0.67 | inactive | inactive | inactive | 
3 | OC[C@H]1OC(O)[C@H](O)[C@@H](O)[C@@H]1O (some centres not stated) [DEXTROSE] |  |  |  |  |  |  |  |  |  |  |  |  |  | inhibition (INH) [13]: Active

Now from value to compound, other results behind:

Row | Activity [2] | permeability [3] | Papp A→B at 2 h, 100 µM [4] | Papp B→A at 2 h, 100 µM [5] | inhibition [6] | inhibition [7] | IC50 [10] | inhibition (INH) [11] | IC50 [12] | Ratio IC50 (Homo sapiens) | Compound | Activity (Caco-2 [1]) | Activity (Caco-2 [8]) | Activity (Caco-2 [9]) | other results
4 |  | Permeable | 23.3 ×10⁻⁶ cm/s | 113 ×10⁻⁶ cm/s | 24% | 38% | > 50000 nM | Active | > 50000 nM |  | COc1ccc(-c2noc(CC(=O)NCCCCC(=O)OC[C@H]3OC(O)[C@H](O)[C@@H](O)[C@H]3O)c2-c2ccc(OC)cc2)cc1 (some centres not stated) | Active | Active |  | 
5 | 0.0086 ng/mL | Permeable | 38 ×10⁻⁶ cm/s | 87.5 ×10⁻⁶ cm/s | 87% | 100% | 270 nM | Active | 3100 nM | 11.5 | COc1ccc(-c2noc(CC(=O)OC[C@H]3O[C@@H](O)[C@H](O)[C@@H](O)[C@H]3O)c2-c2ccc(OC)cc2)cc1 | inactive | inactive | inactive | Activity [14]: 0.0103 ng/mL; Stability [15]: Stable; Activity [16]: 0.0178 ng/mL; Retention_time [17]: 7.504 min; Stability [18]: Stable; Stability [19]: Stable; Stability [20]: Stable
